Measured values taken from patent publication US20140135359A1, “METHODS OF DESIGNING, PREPARING, AND USING NOVEL PROTONOPHORES” (priority 2012, published 2014).

Experiments:
[1] = system: isolated rat liver mitochondria; assay: Residual functional capacity / inhibitory effect on ADP-stimulated (state 3) oxygen consumption; assay type: biochemical; conditions: for inhibitory effect on oxidative phosphorylation: 50 μM (FIG. 19); for Residual capacity (%): functional capacity (state 3 minus state 4 rate) as % of vehicle-treated mitochondria
[2] = system: glucose-6-phosphatase (G6Pase) activity in H4IIE hepatocytes; assay: Glucose-6-phosphatase activity in H4IIE hepatocytes; assay type: cell-based, murine; conditions: 16 h; for suppression of G6Pase activity: 12.5 μM, result in words
Method: 2.4 Glucose-6-phosphatase activity in H4IIE hepatocytes: H4IIE murine hepatocytes (American Type Culture Collection) were cultured to confluence in 12-well plates in DMEM supplemented with 10% FBS and antibiotics. […] Effects of test compounds on cellular viability were assessed by measuring the release of lactate dehydrogenase (LDH) into the culture medium at the end of a 16 h treatment using a commercial kit (Cytotoxicity Detection Kit; Roche Diagnostics; Laval, QC) as per the manufacturer's instructions; LDH release was expressed as % of total (medium+lysate) LDH content for each well. Cells were also routinely inspected for abnormal morphology by phase-contrast microscopy at the conclusion of the treatment period. Following treatment, cells were washed in HEPES-buffered saline (10 mM HEPES, pH 7.4, 150 mM NaCl) at 37° C. Glucose-6-phosphatase (G6Pase) activity was assessed by measuring the rate of glucose formation in the presence of a non-limiting amount of glucose-6-phosphate (G6P), as done by others [39B, 40B]. Glucose production was measured with a commercial glucose assay kit (AutoKit Glucose; Wako Diagnostics; Richmond, Va.). Two hundred μl of AutoKit Glucose buffer solution diluted 1:4 in water were added to each well. Cells were then lysed by the addition of 50 μl of 0.05% Triton X-100 in similarly diluted AutoKit Glucose buffer solution. […] At 37° C., after which time 500 μl of AutoKit Glucose color reagent were added and incubation was continued for exactly 5 min. Samples were then rapidly transferred to microcentrifuge tubes. Fifty μl were removed for assay of total protein content in order to account for effects of test compounds on cellular viability or proliferation [41B]. A commercial protein assay kit based on the Bradford method was used (Protein Assay; Bio-Rad Laboratories; Hercules, Calif.). […] The remaining volume was centrifuged at 3000×g for 5 min. Absorbance of the supernatant was measured at 505 nm at ambient temperature and glucose concentration was calculated from a standard curve performed in parallel. Control wells without exogenous G6P were included on each plate for each treatment condition and activity measured from these wells was subtracted from activity measured in the presence of exogenous G6P. G6Pase activity calculated in this way was then expressed normalized to protein content on a well-by-well basis. Two independent experiments in cells of different passages were performed for each of the selected test compounds, with four to six replicates per condition per experiment.
Protocol for assay of glucose-6-phosphatase activity in H4IIE or other hepatocytes: H4IIE murine hepatocytes (American Type Culture Collection) may be cultured to confluence in 12-well plates in Dulbecco's modified Eagle's medium (DMEM) supplemented with 10% fetal bovine serum (FBS), and antibiotics. […] Effects of test compounds on cellular viability may be assessed by measuring the release of lactate dehydrogenase (LDH) into the culture medium at the end of a 16 hour treatment using a commercial kit (e.g., Cytotoxicity Detection Kit; Roche Diagnostics; Laval, QC) as per the manufacturer's instructions; LDH release may be expressed as % of total (i.e., medium+lysate) LDH content for each well. Cells may also be routinely inspected for abnormal morphology by phase-contrast microscopy at the conclusion of the treatment period. Following treatment, cells may be washed in HEPES-buffered saline (10 mM HEPES, pH 7.4, 150 mM NaCl) at 37° C. Glucose-6-phosphatase (G6Pase) activity may be assessed by measuring the rate of glucose formation in the presence of a non-limiting amount of glucose-6-phosphate (G6P). Glucose production may be measured with a commercial glucose assay kit (e.g., AutoKit Glucose; Wako Diagnostics; Richmond, Va.). Two hundred μl of AutoKit Glucose buffer solution diluted 1:4 in water may be added to each well.

[3] = system: differentiated C2C12 skeletal muscle cells; assay: 3H-deoxyglucose uptake in C2C12 myotubes; assay type: cell-based, murine; conditions: 18 h
Method: 2.3 ^3H-deoxyglucose uptake in C2C12 myotubes: Cell culture and the ^3H-deoxyglucose uptake assay were performed as previously described [34B, 35B, 37B]. Briefly, C2C12 murine skeletal myoblasts (American Type Culture Collection; Manassas, Va.) were cultured under standard conditions in 12-well plates. Cells were proliferated to 80% confluence in high-glucose Dulbecco's modified Eagle's medium (DMEM; Wisent; St-Bruno, QC) supplemented with 10% fetal bovine serum (FBS; Wisent), 10% horse serum (HS), and antibiotics. Differentiation into multinucleated myotubes was then promoted with DMEM supplemented with 2% HS and antibiotics. All uptake assays were performed on 7-day differentiated cells, and treatments were timed accordingly. […] DMSO concentration was fixed at 0.1% for all conditions. Cells were routinely inspected for abnormal morphology by phase-contrast microscopy at the conclusion of the treatment period. […] Cells were then washed twice in glucose-free KPB at 37° C. before incubation for exactly 10 min at 37° C. in glucose-free KPB containing 0.5 μCi/ml 2-deoxy-D-[1-^3H]glucose (Amersham Biosciences; Buckinghamshire, UK). Cells were then placed on ice and immediately washed three times with ice-cold KPB. Cells were inspected for monolayer detachment and lysed in 0.1 N NaOH with scraping. […] Three independent experiments of 18 h treatment duration were performed for each of the selected test compounds, with three replicates per condition per experiment. Vehicle-control and 50 μM 2,4-dinitrophenol conditions were included on every plate. Some compounds were also tested at 50 μM under the following conditions: a 15 h treatment with vehicle only followed by a 3 h treatment with the test compound; a 15 h treatment with the test compound followed by a 3 h repeat treatment.
Protocol for ^3H-deoxyglucose uptake assay in C2C12 or other skeletal muscle cells; C2C12 murine skeletal myoblasts (American Type Culture Collection; Manassas, Va.) may be cultured under standard conditions in 12-well plates. Cells may be proliferated to 80% confluence in high-glucose Dulbecco's modified Eagle's medium (DMEM) supplemented with 10% fetal bovine serum (FBS), 10% horse serum (HS), and antibiotics. Differentiation into multinucleated myotubes may be then promoted with DMEM supplemented with 2% HS and antibiotics. All uptake assays may be performed on 7-day differentiated cells, and treatment onset may be timed accordingly. Cells may be treated with reference substances (such as metformin (100 or 400 μM), phenformin (100 μM), or 2,4-dinitrophenol 10-100 μM), compounds described herein, or vehicle (DMSO) in complete differentiation medium. DMSO concentration may be fixed at 0.1% for all conditions. Cells may be routinely inspected for abnormal morphology by phase-contrast microscopy at the conclusion of the treatment period. […] Cells may be then washed twice in glucose-free KPB at 37° C. before incubation for exactly 10 min at 37° C. in glucose-free KPB containing 0.5 μCi/ml 2-deoxy-D-[1-3H]glucose (Amersham Biosciences; Buckinghamshire, UK). Cells may be then placed on ice and immediately washed three times with ice-cold KPB. Cells may be inspected for monolayer detachment and lysed in 0.1 N NaOH with scraping. […] Three or more independent experiments of 18 hours treatment duration may be performed for each test compound, with three or more replicates per condition per experiment. Vehicle-control and 2,4-dinitrophenol conditions may be included on every plate for the purpose of standardizing.

[4] = system: isolated rat liver mitochondria; assay: Uncoupling activity: increase in basal (state 4) oxygen consumption by oxygraphy; assay type: biochemical; conditions: for Measured Uncoupling Activity (% uncoupling ± SEM @ 100 μM): Suppl. Table 1, 2-3 mitochondrial preparations; for Measured Uncoupling (% uncoupling ± SEM @ 100 μM): Table 1A, relative to ADP-stimulated respiration = 100%; for Uncoupling (%): increase in basal (state 4) oxygen consumption as % of average ADP-stimulated (state 3) rate in vehicle-treated mitochondria
C2C12 myotubes = assay: Morphology / monolayer detachment inspection of treated myotubes; assay type: cell-based, murine; conditions: 100 μM, 18 h
Method: 2.3 ^3H-deoxyglucose uptake in C2C12 myotubes: Cell culture and the ^3H-deoxyglucose uptake assay were performed as previously described [34B, 35B, 37B]. Briefly, C2C12 murine skeletal myoblasts (American Type Culture Collection; Manassas, Va.) were cultured under standard conditions in 12-well plates. Cells were proliferated to 80% confluence in high-glucose Dulbecco's modified Eagle's medium (DMEM; Wisent; St-Bruno, QC) supplemented with 10% fetal bovine serum (FBS; Wisent), 10% horse serum (HS), and antibiotics. Differentiation into multinucleated myotubes was then promoted with DMEM supplemented with 2% HS and antibiotics. All uptake assays were performed on 7-day differentiated cells, and treatments were timed accordingly. […] DMSO concentration was fixed at 0.1% for all conditions. Cells were routinely inspected for abnormal morphology by phase-contrast microscopy at the conclusion of the treatment period. […] Cells were then washed twice in glucose-free KPB at 37° C. before incubation for exactly 10 min at 37° C. in glucose-free KPB containing 0.5 μCi/ml 2-deoxy-D-[1-^3H]glucose (Amersham Biosciences; Buckinghamshire, UK). Cells were then placed on ice and immediately washed three times with ice-cold KPB. Cells were inspected for monolayer detachment and lysed in 0.1 N NaOH with scraping. […]

SMILES	inhibitory effect on oxidative phosphorylation [1]	Inhibitory effect (%) ([1]; test conc. 25 μM)	Residual capacity (%) ([1]; test conc. 25 μM)	Inhibitory effect (%) ([1]; test conc. 100 μM)	Residual capacity (%) ([1]; test conc. 100 μM)	suppression of G6Pase activity [2]	increase in basal glucose uptake ([3]; at ⅛th of metformin's concentration (400 μM))	effect on basal glucose uptake relative to metformin ([3]; metformin 400 μM)	uncoupling activity ([4]; 50 μM in 0.1% DMSO (FIG. 19))	Measured Uncoupling Activity (% uncoupling ± SEM @ 100 μM) ([4]; 100 μM)	Measured Uncoupling (% uncoupling ± SEM @ 100 μM) ([4]; 100 μM)	Uncoupling (%) ([4]; test conc. 25 μM)	Uncoupling (%) ([4]; test conc. 100 μM)	inhibition of ADP-stimulated oxygen consumption ([1]; screening at 100 μM)	uncoupling activity ([4]; 100 μM, result in words)	indications of cytotoxicity (C2C12 myotubes)	suppression of G6Pase activity per mg total protein ([2]; 400 μM)	increase in basal glucose uptake ([3]; 400 μM)
O=C(/C=C/c1ccc(O)c(O)c1)c1ccc(O)cc1O [butein]	inhibition of ADP-stimulated consumption	23%	51 ± 12%	29%	0 ± 0%	exceeding the effect of metformin at 400 μM	269%	more than 6 fold	partial uncoupling	71 ± 4 % uncoupling	71 ± 4 % uncoupling	26 ± 4%	71 ± 4%					
O=C(/C=C/c1ccccc1)c1ccccc1 [chalcone]	small inhibitory effect			65%	35 ± 5%	did not suppress G6Pase activity			devoid of uncoupling activity	−6 ± 0 % uncoupling			−6 ± 0%	inhibitory activity	inactive			
COc1cc(/C=C/C(=O)CC(=O)/C=C/c2ccc(O)c(OC)c2)ccc1O [curcumin]		17%	41 ± 9%	21%	0 ± 0%							42 ± 8%	79 ± 6%			increased susceptibility to monolayer detachment		
O=C(/C=C/c1ccc(O)cc1)c1ccc(O)cc1O [isoliquiritigenin]		11%	65 ± 6%	0%	0 ± 0%	exceeding the effect of metformin at 400 μM				108 ± 7 % uncoupling	>100 % uncoupling	24 ± 3%	108 ± 7%		complete uncoupling			
O=c1c(O)c(-c2ccc(O)cc2)oc2cc(O)cc(O)c12 [kaempferol]		28%	62 ± 5%	47%	28 ± 4%					25 ± 2 % uncoupling		10 ± 1%	25 ± 2%			decreased uptake relative to vehicle-control levels		
CN(C)C(=N)N=C(N)N [metformin]																	56%	43%
